Where “and” joins values, the source holds several entries; their conditions need not be identical. Identical values can stand only once.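 All cell lines were grown in 96-well plates and treated with compound for 48 hours. The concentration for 50% growth inhibition is given as GI50. TGI: total growth inhibition.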
Legend:
Experiment in all cases: NCI-60 cell line screen, 48 h
HCC-2998 colon = system: HCC-2998 colon
TK-10 renal = system: TK-10 renal
SF-295 CNS = system: SF-295 CNS
CCRF-CEM leukemia = system: CCRF-CEM leukemia
RPMI-8226 leukemia = system: RPMI-8226 leukemia
OVCAR-8 ovarian = system: OVCAR-8 ovarian
786-0 renal = system: 786-0 renal
SW-620 colon = system: SW-620 colon
LOX IMVI melanoma = system: LOX IMVI melanoma
HOP-62 NSCLC = system: HOP-62 NSCLC

Structure (SMILES) | TGI (HCC-2998 colon) | TGI (TK-10 renal) | TGI (SF-295 CNS) | TGI (CCRF-CEM leukemia) | TGI (RPMI-8226 leukemia) | TGI (OVCAR-8 ovarian) | TGI (786-0 renal) | TGI (SW-620 colon) | TGI (LOX IMVI melanoma) | TGI (HOP-62 NSCLC) | GI50 (HCC-2998 colon) [µM] | GI50 (TK-10 renal) [µM] | GI50 (SF-295 CNS) [µM] | GI50 (CCRF-CEM leukemia) [µM] | GI50 (RPMI-8226 leukemia) [µM] | GI50 (OVCAR-8 ovarian) [µM] | GI50 (786-0 renal) [µM] | GI50 (SW-620 colon) [µM] | GI50 (LOX IMVI melanoma) [µM] | GI50 (HOP-62 NSCLC) [µM]
Cn1c(=O)c2c3oc(=O)cc(O)c3c(=O)n3c4ccccc4n(c1=O)c23 | > 100 µM | > 100 µM | > 100 µM | > 100 µM | 91.5 µM | > 100 µM | > 100 µM | > 100 µM | 82.4 µM | > 100 µM |  |  |  |  |  |  |  |  |  | 
O=c1oc(-c2ccc(O)c(O)c2)cc2cc(O)cc(O)c12 | 57.7 µM | > 100 µM | > 100 µM | > 100 µM | > 100 µM | > 100 µM | > 100 µM | > 100 µM | > 100 µM | 90.4 µM | 36.6 | 30.5 | 43.7 | 3.39 | 20.8 | 42.1 | 39.6 | 35.2 | 60.8 | 33
CC(C)(C)n1cc(-c2ccnc(NCCNS(=O)(=O)c3ccc(Br)cc3)c2)c(-c2cccc(O)c2)n1 | 3.53 µM | 5.93 µM | 3.61 µM | 18.2 µM | 5 µM | 7.71 µM | 3.82 µM | 3.46 µM | 3.15 µM | 3 µM | 1.84 | 2.24 | 1.82 | 2.69 | 1.6 | 2.27 | 1.72 | 1.72 | 1.75 | 1.5
Oc1cc2cc(-c3ccccc3)[nH]c2c2ccccc12 | > 100 µM | > 100 µM | > 24.5 µM | > 100 µM | 67.6 µM | > 100 µM | > 100 µM | > 100 µM | 34.3 µM | > 100 µM |  |  |  |  |  |  |  |  |  | 
O=C1c2c(O)cccc2C(C(=O)CCCCC(=O)C2c3cccc(O)c3C(=O)c3c(O)cccc32)c2cccc(O)c21 | 2.63 µM and 3.14 µM | 3.65 µM and 8.35 µM | 4.57 µM and 1.49 µM | 2.65 µM and 2.61 µM | 1.3 µM and 3.08 µM | 2.16 µM and 5.26 µM | 5.53 µM and 10.7 µM | 10.1 µM and 7.17 µM | 2.74 µM and 5.08 µM | 1.66 µM and 2.52 µM | 1.07 | 2.85 | 0.672 | 1.2 | 1.04 | 1.53 | 4.83 | 1.73 | 1.56 | 1.05
c1ccc2c(c1)nc(NCCN1CCNCC1)c1c3ccccc3[nH]c21 | 1.68 µM | 6.91 µM | 2.21 µM | 1.82 µM | 0.399 µM | 0.883 µM | 1.6 µM | 2.54 µM | 1.03 µM | 2.2 µM | 0.425 | 1.34 | 0.618 | 0.086 |  | 0.111 | 0.342 | 0.25 | 0.295 | 0.404
CC1Cc2c(N(C)C)ncnc2N(C)c2ccc(Cl)cc21 (centres undefined) | 37.3 µM | > 100 µM | 9.85 µM | 18 µM | 17.3 µM | > 100 µM | 29.3 µM | > 100 µM | 27.2 µM | 73.4 µM | 6.9 | 14.8 | 1.98 | 2.92 | 3.53 | 9.17 | 8.26 | 3.35 | 6 | 4.81
COc1ccc(S(=O)(=O)N/N=C/C(=O)O)cc1 | > 1250 µM | > 1250 µM | 1070 µM | 712 µM | 887 µM | 1100 µM | 971 µM | 1230 µM | 733 µM | 1130 µM |  |  |  |  |  |  |  |  |  | 
O=C(CCCCCCCCC(=O)OCC1OC(n2cnc3c(=O)[nH]cnc32)C(O)C1O)OCC1OC(n2cnc3c(=O)[nH]cnc32)C(O)C1O (centres undefined) | > 100 µM | > 100 µM | > 100 µM | > 100 µM | > 100 µM | > 100 µM | > 100 µM | > 100 µM | > 100 µM | > 100 µM |  |  |  |  |  |  |  |  |  | 
CC[C@]12C=CCN3CC[C@]4(C(=C(C(=O)OC)C1)Nc1cc(O)ccc14)[C@@H]32 | 29.6 µM | 99.7 µM | 33.1 µM | > 100 µM | 79.8 µM | 68.8 µM | 40.8 µM | 36.6 µM | 26.7 µM | 38.9 µM | 14.9 | 30.8 | 16.7 | 25.3 | 26.2 | 24.5 | 15.7 | 16.3 | 13.6 | 17.2
